Structure (SMILES)	melting point [°C]
CC(C)(C)CC(=O)c1c(CC(C)(C)C(=O)O)n(Cc2ccc(Cl)cc2)c2ccc(OCc3ccc4ccccc4n3)cc12	183 to 184
CN1CCN(CCCCCCCCCOc2ccc3oc(-c4ccccc4)cc(=O)c3c2)CC1	77 to 80
CCCCOC1C=CC(=O)N1S(=O)(=O)c1ccc(OC)cc1 (stereo unspecified)	65 to 66
COc1nc(N2CC(O)C2)c(Cl)nc1NS(=O)(=O)c1cccc(Cl)c1Cl	93 to 95
COc1ccccc1N1CCN(CCCNC(=O)c2cccc3c(=O)c(C)c(-c4cccc([N+](=O)[O-])c4)oc23)CC1	135 to 137
CCN(C)c1nc(-c2ccc(OC)c(OC)c2)nc2sc(C#N)c(C)c12	133 to 135
CC(C#N)(C(O)c1ccc(Cl)cc1Cl)n1cncn1 (stereo unspecified)	164 to 168
CC(C)(CO)c1cnc(-c2nn(-c3ccc(F)cc3F)c3c2C2CCC3C2)o1 (stereo unspecified)	66 to 68
COc1ccc(C2=NN(C3CCCCCC3)C(=O)[C@H]3CC=CC[C@@H]23)cc1OC(F)F (relative stereo)	83
COc1ccc(S)nn1	198 to 200
C[C@@H]1Nc2nc(Cl)ccc2NC1=O	236 to 237
C#CCN1C(=O)COc2cc(F)c(-c3ccc(C(F)(F)F)n(C)c3=O)cc21	166 to 168
CCCCCCC(C)(C)c1ccc(C2=CCCC3(C2)OCCO3)c(O)c1	97 to 98
C#CC[C@@H](NCCCNC(=O)OCc1ccccc1)c1nc2cc(Cl)ccc2c(=O)n1Nc1ccccc1	63 to 65
CCCCCCCCCCCCCCc1ccc(CCCCCC)c(O)c1	43 to 45
CCC1(CC)C(=O)Nc2ccccc21	156 to 159
O=C1c2c(cc(O)c(O)c2[N+](=O)[O-])CC1CN1CCOCC1 (stereo unspecified)	193 to 195
CC(=O)OCCSCCCC(=O)NC/C=C\COc1cc(CN2CCCCC2)ccn1	36 to 40
CCC(C)(C)Nc1c(NCc2cc(Cl)ccc2Cl)c(=O)c1=O	195 to 196
CC(C)CCCC(C)C1CCC2C3CC=C4CCCC(O)C4(C)C3CCC12C (stereo unspecified)	102 to 103
CN1CCN=C1CC(c1ccccc1)c1ccccc1	108 to 110
CC(=O)NC(C)Cc1ccc(CCC(=O)O)cc1 (stereo unspecified)	93 to 96
Cc1ncccc1CC(=NC#N)NC(NC(=O)Cc1ccc2ncccc2c1)C(C)(C)C (stereo unspecified)	132 to 134

Structure (SMILES)	melting point [°C]
COc1cc(Nc2cc(C(F)(F)F)nc(-c3cc(Cl)nc(Cl)c3)n2)cc(OC)c1	109 to 110
CC(CSC#N)C(=O)O (stereo unspecified)	24 to 25
COc1ccc(CC(C)NC(=O)C(F)(F)F)cc1 (stereo unspecified)	100 to 102
c1cnc(NC2CCN(CC3CCc4ccccc4O3)CC2)nc1 (stereo unspecified)	142
CC1(C)Cc2nc3ccccc3n2C(=O)N1	205 to 210
Clc1ccc(-c2nc3cccnc3n2Cc2ccccn2)cc1	144 to 146
CCS(=O)(=O)Nc1ccc(-c2cccc(-c3nc(C(C)C)[nH]c3-c3cccc(C)n3)c2)cc1	123 to 135
Cc1cc(F)ccc1-c1ccc(S(=O)(=O)N2c3ccccc3CC2C(=O)NCCOc2cc(F)c(C(=O)O)c(F)c2)cc1 (stereo unspecified)	97 to 111
COc1ccc2c(ccc3c4ccc(OC)cc4c(=O)n(-c4ccc(OCCN5CCCCC5)cc4)c23)c1	176
CC(C)(C)OC(=O)[C@H]1C[C@H](C(=O)Nc2ccccc2)[C@@H](c2ccccc2F)N1C(=O)CNC(=O)Nc1cccc(C(=O)O)c1 (racemic)	170
CN(c1cc(OC(F)(F)F)cc2cc(C3=NCC(CC(=O)O)S3)[nH]c12)S(=O)(=O)c1cccs1 (stereo unspecified)	225 to 227
CCCCCCCCCCCCCC=CCC(O)C(=O)O (stereo unspecified)	78 to 79.5
COc1ccccc1-n1ccc(=N)cc1	121 to 124
N#Cc1cc(F)c(-n2nc3ccc(Cl)cn3c2=O)cc1O	> 260
CCOC(=O)c1c(C)nc2snnc2c1NC(C)C	62 to 65
O=C(NCc1ccncc1)c1ccnc(N2CCN(CC3CC3)C2=O)c1	160 to 162
NC(=S)c1ccc(Br)cc1	142 to 144
CC(C)Oc1ccc(C(=O)NCCCCCCCNC(=O)c2ccc(OC(C)C)cc2)cc1	135 to 136
O=CNC1Cc2ccc([N+](=O)[O-])cc2C1 (stereo unspecified)	91 to 92
Clc1ccc(-c2cc(C3CCN(Cc4ccc5ccccc5c4)CC3)n[nH]2)cc1	180 to 181
O=C1CC(c2cccc(-n3ccnc3)c2)=Nc2cc(OCCO)c(C#Cc3ccccc3)cc2N1	224 to 227
O=S(=O)(c1ccc(Nc2nccc(Nc3ccc(F)cc3)n2)cc1)N(CCNCC(F)(F)F)C1CCN(Cc2ccccc2)CC1	137 to 138
O=C1c2ccccc2C(=O)N1OC/C=C/Cc1ccccc1	70 to 71

Structure (SMILES)	melting point [°C]
O=Cc1cc(O)c2c(c1O)CCCC2	145
O=C(NC(=O)c1ccccc1)NC1CCN(CC(=O)C2COc3ccccc3O2)CC1 (stereo unspecified)	160 to 161
C=CC(=O)N1CCC(C(=O)O)CC1	109 to 110
O=C(C=Cc1ccc(F)cc1)C1CCCCC1	44 to 46
COc1ccc2nc(NC(=O)C(CC3CCCC3)c3ccc(S(=O)(=O)CC(C)=O)cc3)sc2n1 (stereo unspecified)	67 to 71
O=C(O)c1cccc(N2CCN(CCc3ccccc3)CC2)c1F	85.5 to 87.5
FC(F)(F)c1cccc(-c2cc(CCl)on2)c1	33 to 37
CN1C(=O)C(c2cccc(Br)c2)(c2c[nH]c(C=O)c2)N=C1N (stereo unspecified)	142 to 151
C=C=Cn1[nH]c2ccccc2c1=O	126 to 130
CC(C)N1Cc2cc(N)ccc2N(CCCl)S1(=O)=O	154 to 156
CCOC(=O)CCc1cc(O)nn1C	132 to 135
CCc1nc2c(cnn2CC)c(NC2CCOCC2)c1CNC(=O)c1cccc(C(=O)NCc2cc(Cl)cc(-c3cccc(CN4CC(C)NC(C)C4)c3)c2)c1 (stereo unspecified)	112 to 114
COC1C2=C3C(=CN1OC)OCCC3CC(CCC#N)C2 (stereo unspecified)	105 to 107
CC(C)(C)NC(=S)Nc1cc(Br)cc(Br)c1	172 to 174
O=Cc1cc(Br)cnc1N1CCC(CO)C1 (stereo unspecified)	84 to 85.5
COC(=O)c1cc(S(C)(=O)=O)ccc1OC1CCOC1=O (stereo unspecified)	102 to 105
CNC(=S)C1=C(O)C(C)(COC)Oc2ccc([N+](=O)[O-])cc21 (stereo unspecified)	139 to 141
CCC(O)CP(=O)(O)CCCN (stereo unspecified)	184 to 185
N#CC1CN1C(=O)NC(=O)COc1ccccc1 (stereo unspecified)	134 to 136
O=C(c1ccccc1)n1c(=O)c(C(F)(F)F)cn(C2CC(OCc3ccccc3)C(CO)O2)c1=O (stereo unspecified)	154 to 155
COc1cc(C=Cc2ccccc2)ccc1OCC(O)CCCc1cccnc1 (stereo unspecified)	110 to 111
CN(C)S(=O)(=O)c1cc(-c2csc(=Nc3ccc(C(F)(F)F)cc3)n2C)ccc1Cl	147 to 151

The remaining lines, values ahead:

melting point [°C]	Structure (SMILES)
130 to 132	CCOC(=O)C1=C(C)NC(=S)N(C(=O)OCC)C1c1ccc(OC)cc1 (stereo unspecified)
69	CCOCCOc1cc(C)c(-c2cccc(COc3ccc(C=CC(=O)OC)cc3)c2)c(C)c1
181 to 182	CC(=O)OCCc1c(-c2ccccc2)nc(N)n2ncnc12
186 to 188	COCc1cc(O)cc2cc(-c3ccc(O)cc3)oc12
128 to 130	CC(=NOCCO)c1ccc(-c2ccccc2)cc1
93 to 98	CCOC(=O)C(C)(C)Oc1ccc(OCCn2c(=O)sc3cc(C(=NOC)c4cccc(Cl)c4)ccc32)cc1
102 to 106	CC1(C)C=C(c2cccc(C(F)(F)F)c2)c2ccc(O)cc2O1
139 to 140	CCCC(O)C1(c2onc(-c3ccc(O)cc3)c2-c2ccccc2)CC1 (stereo unspecified)
88 to 90	Cc1cccc(-c2n[nH]cc2-c2ccc(F)c(-c3ccc(S(=O)(=O)CCO)cc3)c2)n1
181 to 183	Cc1oc(-c2ccccc2)nc1COc1ccc(CC(=O)O)cc1
266 to 268	Nc1nc(NCCOc2ccc(O)cc2)nc2nc(-c3ccco3)nn12
65.5 to 69	COc1ccc(C(=O)COc2ccc(NC3=NCCN3)cc2)cc1
193 to 194	COC(=O)c1cccc(NC(=S)Nc2cc(NC(=O)Nc3ccc(Cl)c(Cl)c3)ccc2OC)c1
89.5 to 92.5	CCOC(=O)C(OC)C(=O)Nc1cc(Cl)cc(Cl)c1 (stereo unspecified)
110 to 111	O=c1ccc(-c2cccc(Br)c2)nn1CN1CCOCC1
178 to 179	COc1cc(NC(=O)CN2CCOCC2)c(Cl)cc1Cn1nc(-c2ccc(C(F)(F)F)cc2)oc1=O
199 to 200	Nc1nc2c(c(Nc3cccc(F)c3)n1)-c1ccccc1C2

melting point [°C]	Structure (SMILES)
67.6 to 68.5	CCCCCCC(C)Oc1ccc(-c2ccc(C(C)=O)cc2)cc1F (stereo unspecified)
75 to 77	CC(C)[C@H](NC(=O)OCc1ccccc1)C(=O)c1ccc(OCc2ccccc2)cc1
139 to 142	COc1ccc(C)cc1NC(=O)Nc1ccc(C2=CCN(C(=O)Nc3cc(OCCO)ccc3Cl)CC2)cc1
218 to 220	CC1=C(C(=O)OC(C)C)C(c2ccccc2F)c2c[nH]nc2N1 (stereo unspecified)
57 to 58	COc1ccc(C)c(OC(F)C(=O)c2ccccc2)c1 (stereo unspecified)
82 to 90	O=[N+]([O-])c1cc(OCc2ccccc2)c2ccccc2c1CCO
247 to 249	Nc1cccc(CNC(=O)c2[nH]c3ccc(Cl)cc3c2S(=O)(=O)c2ccccc2)c1
220 to 223	O=C(O)c1ccc(Oc2ccccc2C(=O)O)cc1
125 to 129	CCOC(=O)c1cccc2c1CCc1cc(O)ccc1S2
126 to 128	CCOCc1cc2cc(Cl)ccc2oc1=Nc1ccc(Cl)cc1
220	NC(=O)c1[nH]cnc1OC(=O)c1ccc(Cl)cc1
132 to 134	Cc1ccc(C2CCN(C(=O)CCC(=O)c3ccc4c(c3)CCN(C(=O)C(F)(F)F)CC4)CC2)cc1
182	CC(=O)c1ccc(OCn2cc(Cl)cnc2=O)cc1
126	C1=C(c2cccc(CNCCOc3cccc4ccoc34)c2)CCC1
167 to 169	COC(=O)c1ccc(NC(=O)c2ccccc2C)nc1
> 260	CC(=O)Nc1nc(N)nc(-c2ccc(Oc3ccccc3)cc2)n1

— a melting point compilation (Tetko et al.; mined from patent text by program, amines drawn as free bases though some values may be those of a salt)
